Key:
soybean leaf segments = assay: Stimulation of the protein level of soybean, glycine-14C incorporation (Example 18); conditions: 24 hours; for Radioactivity: 200 ppm, control 11.9
Protocol: The active agent to be tested was dissolved in distilled water to form a 200 ppm solution, and soybean leaf segments, weighing 200 mg, were floated on the surface of the solution for 24 hours. In the control test leaf segments, weighing 200 mg, were floated on the surface of distilled water.
The leaf segments were washed with distilled water, and then treated for 3 hours with 20 ml of a solution containing labelled amino acid (glycine-^14 C; activity: 2 μCi). After this exposition period the leaf segments were washed with an aboundant amount of water, and the protein content of the leaf segments was isolated in a manner known per se. Stock solution was prepared from the isolated protein, and the specific radioactivity of the solution was determined by liquid scintillation.

Wheat = assay: Stimulation of nutrient uptake, labelled phosphate, wheat (Example 24); conditions: for labelled phosphate in nucleic acid fraction: 200 ppm, control 17.4
Protocol: (§1) The compositions according to the invention were diluted with distilled water to an active agent concentration of 200 ppm, and leaf segments of wheat, maize and pea, weighing 200 mg each, were treated with the solutions. Thereafter the treated green leaf segments were treated for 0.5 hours with a solution of labelled phosphate ions (radioactivity: 30 μCi/50 ml). After this exposition period the treated leaf segments and the untreated controls were processed in a manner known per se to isolate the nucleic acid fractions, and the isolated nucleic acid fractions were dissolved in 6 n ammonium hydroxide solution. Stock solutions were prepared from the resulting solutions, and the amount of labelled phosphate ions present in the stock solutions were measured by liquid scintillation.

Maize = assay: Stimulation of nutrient uptake, labelled phosphate, maize (Example 24); conditions: for labelled phosphate in nucleic acid fraction: 200 ppm, control 31.2
Protocol: as §1

Alfalfa = assay: Total and protein nitrogen content of alfalfa, field (Example 26); type: in vivo; conditions: for Protein nitrogen content: control 2.25; for Total nitrogen content: control 3.36
Protocol: Alfalfa was treated with the compositions according to the invention under large-parcel field conditions. The tests were performed in fourfold replications on parcels 1 hectare in area, each. The oily compositions according to the invention were diluted with water and then sprayed onto the test parcels either once or twice.
The parcels were sprayed first when the soil was already covered with sprouting alfalfa shoots. The second treatment, if any, was performed two weeks later. The dose applied in all of the treatments was 2 kg/ha.
The total nitrogen content and the protein nitrogen content of alfalfa, harvested from the untreated, once-treated and twice-treated parcels, was measured.

[1] = system: Mixed soybean/sunflower cultures; assay: Nitrogen content of mixed soybean/sunflower culture (Example 27); type: in vivo; conditions: 3 x 2 kg/ha; for Protein nitrogen content: control 2.27; for Total nitrogen content: control 2.56; for Protein nitrogen content in % of the total nitrogen content: control 65.2
Protocol: Mixed soybean/sunflower cultures, to be harvested when green, were treated with the compositions according to the invention under large-parcel field conditions. The tests were performed in fourfold replications on parcels 1 hectare in area, each. The compositions were diluted with water and sprayed onto the parcels three times, in doses of 2 kg/ha, each. The first treatment was performed when the soil was already completely covered by green plants, the second treatment was performed two weeks later, and then the third after two additional weeks. The green plants were harvested from the treated and control parcels, and the total nitrogen content and protein nitrogen content were determined.

maize for silage = assay: Green weight and nitrogen content of maize for silage (Example 28); type: in vivo; conditions: for Green weight: 2 kg/ha to soil, 200 m^2 parcels, control 365; for Total nitrogen content, absolute: control 0.30; for Real protein content, absolute: control 1.35; for Crude proteins, absolute: control 1.85; for Total carbon content, absolute: control 8.99; for Air-dry substance, absolute: control 20.57
Protocol: The tests were performed on parcels 200 m^2 in area. The compositions according to the invention were utilized as solid formulations, and were diluted with water prior to applying them onto the soil. The active agent was applied to the soil in an amount of 2 kg/ha directly before sowing. The green weight of the maize for silage, harvested from the treated and control parcels, was measured, and the dry substance content, crude protein content, real protein content, nitrogen content and carbon content of the green plants were determined.

hybrid maize = assay: Grain yield of maize (Example 29); type: in vivo; conditions: for Grain yield, increase: in vivo; for Grain yield: seed dressing 0.5 kg/ha + sprays 3, 1, 2 kg/ha, control 132.8
Protocol: The compositions according to the invention were applied as seed dressing agents onto the sowing-seeds of hybrid maize in a dosis of 0.5 kg/ha. The powdery compositions were wetted with water prior to application. The stand was sprayed three times during the cultivation period: first at the four-leaves development stage with a dosis of 3 kg/ha, then prior to tasseling with a dosis of 1 kg/ha, and finally prior to pollen ripening with a dosis of 2 kg/ha. The crop was evaluated as May shelled corn.

Pannonia vine variety = assay: Berry yield and sugar content of vine, Pannonia (Example 33); type: in vivo; conditions: for Berry yield: 3 x 2 kg/ha, control 216; for Sugar content: control 13.0; for Sugar yield: control 28.08
Protocol: Vine stands were sprayed with the compositions according to the invention to examine their effects exerted on the berry yield and sugar content. The compositions, diluted with water, were sprayed three times onto the plants. The first treatment was performed prior to flowering, the second one three weeks later, and the third one six weeks after the first one. The dose applied was 2 kg/ha in each of the treatments.
Comparative tests were also performed with commonly used growth regulating compositions, i.e. CCC (chlorocholine chloride), Ethrel (or Etefon; 2-chloroethylphosphonic acid) and Nevirol (N-phenyl-phthalaiminic acid). The results were compared to those observed with the untreated controls.
Two vine varieties, Pannonia and Egri leanyka, were involved in the tests.

grass stands = assay: Crop yield and nitrogen content of grass stand (Example 34); type: in vivo; conditions: for Protein nitrogen content / Total nitrogen content / Crop yield: 3 x 2 kg/ha; for Protein nitrogen content: control 2.80; for Total nitrogen content: control 4.22; for Crop yield: 4 m^2 parcels, control 5.10
Protocol: Tests were performed on grass stands to examine how the compositions according to the invention influence the crop yield, furthermore the total nitrogen content and protein nitrogen content of the crop.
Parcels, 4 m^2 in area, were separated and pegged out on a grass land, and the parcels were sprayed three times with the compositions according to the invention. The liquid compositions were diluted with water prior to spraying, and spraying was repeated in every two weeks. A dose of 2 kg/ha w was applied in each of the treatments.
Thereafter the grass was mowed, the green crop was weighed, and the total nitrogen content and protein nitrogen content of the mowed grass were determined.

[2] = system: Edible beans (Superelite variety); assay: Crop yield of edible beans (Example 35); type: in vivo; conditions: for Crop yield: control 15.00
Text: Edible beans (Superelite variety) were sprayed once or twice with the compositions according to the invention.
From the data of Table 29 conclusions can be drawn for the correlation between the development stage of the stand at treatment and the effect of the treatment.

[3] = 2 treatments, 06.20.1979 and 07.06.1979

N=C(N)N.N=C(N)N.Oc1nnc(O)c2ccccc12 [1,4-dihydroxyphthalazine diguanidine salt]
Radioactivity (soybean leaf segments): 15.5 mu Ci/100 mg
activation at 200 ppm (soybean leaf segments; Glycine max): 30.2%
labelled phosphate in nucleic acid fraction (Wheat): 29.3 1000 cpm/g
activation at 200 ppm (Wheat; Triticum aestivum): 68.5%
labelled phosphate in nucleic acid fraction (Maize): 47.0 1000 cpm/g
activation at 200 ppm (Maize; Zea mays): 50.6%
Protein nitrogen content, stimulation (Alfalfa; 1 treatment, 2 kg/ha): 54%
Total nitrogen content, stimulation (Alfalfa; 1 treatment, 2 kg/ha): 24%
Protein nitrogen content (Alfalfa; 1 treatment, 2 kg/ha): 3.48 % of dry substance
Total nitrogen content (Alfalfa; 1 treatment, 2 kg/ha): 4.17 % of dry substance
Protein nitrogen content, stimulation [1]: 39.6%
Total nitrogen content, stimulation [1]: 34.7%
Protein nitrogen content [1]: 3.17 % of dry weight
Total nitrogen content [1]: 3.45 % of dry weight
Protein nitrogen content in % of the total nitrogen content [1]: 94.8%
Green weight (maize for silage): 374 kg
Total nitrogen content, absolute (maize for silage; 2 kg/ha): 0.40%
Real protein content, absolute (maize for silage; 2 kg/ha): 1.71%
Crude proteins, absolute (maize for silage; 2 kg/ha): 2.52%
Total carbon content, absolute (maize for silage; 2 kg/ha): 9.99%
Air-dry substance, absolute (maize for silage; 2 kg/ha): 22.79%
Grain yield, increase (hybrid maize): 37.0%
Grain yield (hybrid maize): 181.9 q/ha
Sugar content, increase (Pannonia vine variety): 53.8%
Sugar yield, increase (Pannonia vine variety): 62%
Berry yield (Pannonia vine variety): 232 q/ha
Sugar content (Pannonia vine variety): 20.0%
Sugar yield (Pannonia vine variety): 46.40 q/ha
Protein nitrogen content (grass stands): 2.62%
Total nitrogen content (grass stands): 3.89%
Crop yield (grass stands): 5.35
Crop yield, increase ([2]; 1 treatment, 07.06.1979): 18.4%
Crop yield ([2]; 1 treatment, 07.06.1979): 17.77 q/ha

CCC[n+]1c[nH]c2ccccc21.[Br-] [N--(n-Propyl)-benzimidazolium bromide, N-(n-propyl)-benzimidazolium bromide]
Radioactivity (soybean leaf segments): 13.7 mu Ci/100 mg
labelled phosphate in nucleic acid fraction (Wheat): 22.8 1000 cpm/g
labelled phosphate in nucleic acid fraction (Maize): 39.3 1000 cpm/g
Protein nitrogen content, stimulation (Alfalfa; 1 treatment, 2 kg/ha): 8%
Total nitrogen content, stimulation (Alfalfa; 1 treatment, 2 kg/ha): 4%
Protein nitrogen content (Alfalfa; 1 treatment, 2 kg/ha): 2.48 % of dry substance
Total nitrogen content (Alfalfa; 1 treatment, 2 kg/ha): 3.51 % of dry substance
Protein nitrogen content, stimulation (Alfalfa; 2 treatments, 2 kg/ha each): 22%
Total nitrogen content, stimulation (Alfalfa; 2 treatments, 2 kg/ha each): 13%
Protein nitrogen content (Alfalfa; 2 treatments, 2 kg/ha each): 2.75 % of dry substance
Total nitrogen content (Alfalfa; 2 treatments, 2 kg/ha each): 3.91 % of dry substance
Protein nitrogen content, stimulation [1]: 21.1%
Total nitrogen content, stimulation [1]: 9.7%
Protein nitrogen content [1]: 2.75 % of dry weight
Total nitrogen content [1]: 2.80 % of dry weight
Protein nitrogen content in % of the total nitrogen content [1]: 98.9%
Air-dry substance, relative (maize for silage; 2 kg/ha): 14.10%
Crude proteins, relative (maize for silage; 2 kg/ha): 21.7%
Real protein content, relative (maize for silage; 2 kg/ha): 4.4%
Green weight (maize for silage): 389 kg
Total nitrogen content, absolute (maize for silage; 2 kg/ha): 0.86%
Real protein content, absolute (maize for silage; 2 kg/ha): 1.4%
Crude proteins, absolute (maize for silage; 2 kg/ha): 2.25%
Total carbon content, absolute (maize for silage; 2 kg/ha): 10.27%
Air-dry substance, absolute (maize for silage; 2 kg/ha): 23.48%
Carbon/nitrogen ratio (maize for silage; 2 kg/ha, control 30.86): 28.67
Grain yield, increase (hybrid maize): 12.4%
Grain yield (hybrid maize): 149.3 q/ha
Sugar content, increase (Pannonia vine variety): 21.5%
Sugar yield, increase (Pannonia vine variety): 27%
Berry yield (Pannonia vine variety): 226 q/ha
Sugar content (Pannonia vine variety): 15.8%
Sugar yield (Pannonia vine variety): 35.70 q/ha
Protein nitrogen content (grass stands): 3.54%
Total nitrogen content (grass stands): 5.36%
Crop yield (grass stands): 5.27
Protein nitrogen content, increase (grass stands; in vivo): 26.4%
Total nitrogen content, increase (grass stands; in vivo): 27.0%
Crop yield, increase ([2]; 1 treatment, 06.20.1979): 18.4%
Crop yield ([2]; 1 treatment, 06.20.1979): 17.77 q/ha
Crop yield, increase ([2]; 1 treatment, 07.06.1979): 13.5%
Crop yield ([2]; 1 treatment, 07.06.1979): 17.03 q/ha
Crop yield, increase [2, 3]: 30.1%
Crop yield [2, 3]: 19.52 q/ha
